PMC7958898 (Journal of Medicinal Chemistry, 2021)
Residue numbers refer to the chain shown, from its start.

How the values were obtained:
hCCR2b [1] = molecular target: T1, hCCR2b (Homo sapiens, UniProt P41597); assay: [3H]-CCR2-RA displacement assay, U2OS-CCR2 membranes; details: ratio of apparent Ki to Ki of compound 7
T1 sequence (P41597 1-360 isoform P41597-2): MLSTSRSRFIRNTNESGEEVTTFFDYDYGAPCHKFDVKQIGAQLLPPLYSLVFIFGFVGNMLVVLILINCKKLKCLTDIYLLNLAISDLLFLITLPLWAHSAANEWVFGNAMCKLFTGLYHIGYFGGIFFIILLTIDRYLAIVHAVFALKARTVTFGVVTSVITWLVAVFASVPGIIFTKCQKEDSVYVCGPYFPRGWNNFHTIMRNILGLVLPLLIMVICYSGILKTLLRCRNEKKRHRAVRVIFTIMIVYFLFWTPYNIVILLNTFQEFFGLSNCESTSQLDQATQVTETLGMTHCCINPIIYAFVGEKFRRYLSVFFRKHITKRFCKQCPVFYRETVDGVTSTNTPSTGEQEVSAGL

[2] = Stability under radioligand binding assay conditions; type: physicochemical
hCCR2b [3] = molecular target: T1, hCCR2b; assay: NanoBiT β-arrestin1 recruitment assay in live HEK293t cells; details: unwashed control vs [35S]GTPγS binding assay
[4] = molecular target: T2, CCR2 triple mutant C70S/C75S/C232S (Homo sapiens, UniProt P41597, C232S/C70S/C75S); assay: [3H]-CCR2-RA-[R] washout assay, CHO membranes, CCR2 triple mutant; details: 160 nM 14, four wash cycles
T2 sequence (P41597 1-360 isoform P41597-2 C70S/C75S/C232S): T1 sequence (P41597 1-360 isoform P41597-2) with C70S, C75S, C232S

| Structure (SMILES) | loss/reduction of affinity compared to compound 7 (hCCR2b [1]) [fold] | time compound remained intact in assay buffer ([2]; 25 μM, 50 mM Tris-HCl pH 7.4, 5 mM MgCl2, 0.1% CHAPS, room temperature, data not shown) | stability at higher concentration and temperature ([2]; 1 mM compound, 37 °C, over 4 h) | higher potency in β-arrestin recruitment than in [35S]GTPγS binding assay (hCCR2b [3]) [fold] | [3H]-CCR2-RA-[R] binding after washout [4] |
| --- | --- | --- | --- | --- | --- |
| O=C(NCCNC(=O)c1ccc(S(=O)(=O)F)cc1)c1ccc(Oc2ccc(Cl)cc2NS(=O)(=O)c2ccc(Cl)c(C(F)(F)F)c2)cc1 [Compound 13, 4-((2-(4-(4-Chloro-2-((4-chloro-3-(trifluoromethyl)phenyl)sulfonamido)phenoxy)benzamido)ethyl)carbamoyl)benzenesulfonyl Fluoride] | 15 | – | – | – | – |
| N#CSCCNC(=O)c1ccc(Oc2ccc(Cl)cc2NS(=O)(=O)c2ccc(Cl)c(C(F)(F)F)c2)cc1 [Compound 14, 4-(4-Chloro-2-((4-chloro-3-(trifluoromethyl)phenyl)sulfonamido)phenoxy)-N-(2-thiocyanatoethyl)benzamide] | – | over 6 h | gradual degradation | 8 | recovered to levels comparable to compound 7 |
| O=C(NCCN=C=S)c1ccc(Oc2ccc(Cl)cc2NS(=O)(=O)c2ccc(Cl)c(C(F)(F)F)c2)cc1 [Compound 11, 4-(4-Chloro-2-((4-chloro-3-(trifluoromethyl)phenyl)sulfonamido)phenoxy)-N-(2-isothiocyanatoethyl)benzamide] | 5 | – | – | – | – |
